Tests used:
[1] = MTT cytotoxicity assay, HNEpC (normal cells); type: cell-based; settings: HNEpC cells (normal nasal epithelial cells), normal human nasal epithelial cells, 24 h exposure, n = 8
Text: (§1) The human cervical cancer cell line Hela, the human lung adenocarcinoma cell line A549, the human breast cancer cell lines MCF-7 and MDA-MB-231, the human hepatoma cell lines BEL-7402 and Hep G2, the human embryonic lung fibroblast cell line MRC-5, and the human nasal epithelial cell line HNEpC were all sourced from the China Center for Type Culture Collection (CCTCC, Wuhan University, Hubei, China). Hela, A549, MCF-7, MDA-MB-231, BEL-7402, MRC-5, and Hep G2 cells were maintained in DMEM media, while HNEpC cells were cultured in RPMI 1640. All media were supplemented with 10% FBS (v/v) and 1% penicillin-streptomycin, and cells were grown in a humidified atmosphere containing 5% CO2 at 37 °C.
(§2) The MTT assay was conducted to assess cell viability, as previously described. Cells were seeded onto 96-well plates at a density of 1 × 10^4 cells per well, with each experiment replicated eight times to ensure reproducibility. Following incubation at 37 °C for 24 h, cells were exposed to various concentrations (0.25, 0.5, 1.0, 2.0, 4.0, 8.0, 16.0, 32.0 µM) of compounds 1–10 for 24 h. Subsequently, 10 μL MTT reagent was added to each well, and the plates were incubated for a further 4 h at 37 °C, adhering strictly to the manufacturer’s instructions. The optical density (OD) values were then measured at 570 nm using a microplate reader. The cell survival rate for each compound was calculated employing the following formula: OD value of the experimental group−OD value of the blank group/OD value of the control group−OD value of Blank group×100%
(§3) Statistical analysis data from the cytotoxicity and α-glycosidase inhibitory assays were analyzed using the mean and standard deviation. The 50% cytotoxic and inhibitory concentrations were calculated and compared to the control via non-linear regression. These analyses were performed using SPSS® Statistics (Version 18.0, IBM Software, Armonk, NY, USA).

MCF-7 = assay: MTT cytotoxicity assay, MCF-7; type: cell-based; settings: Homo sapiens, MCF7, 24 h exposure, ± SD, n = 8
Text: as §1, §2, §3

[2] = MTT cytotoxicity assay, MRC-5 (normal cells); type: cell-based; settings: MRC-5 cells (normal embryonic lung fibroblasts), normal human embryonic lung fibroblast, 24 h exposure, n = 8
Text: as §1, §2, §3

BEL-7402 = assay: MTT cytotoxicity assay, BEL-7402; type: cell-based; settings: Homo sapiens, 24 h exposure, ± SD, n = 8
Text: as §1
as §2, with “Following incubation at 37 °C for 24 h, cells were exposed to various concentrations (0.25, 0.5, 1.0, 2.0, 4.0, 8.0, 16.0, 32.0 µM) of compounds 1–10 for 24 h.” left out
as §3

Hela = assay: MTT cytotoxicity assay, Hela; type: cell-based; settings: Homo sapiens, 24 h exposure, ± SD, n = 8
Text: as §1
as §2, with “Following incubation at 37 °C for 24 h, cells were exposed to various concentrations (0.25, 0.5, 1.0, 2.0, 4.0, 8.0, 16.0, 32.0 µM) of compounds 1–10 for 24 h.” left out
as §3

MDA-MB-231 = assay: MTT cytotoxicity assay, MDA-MB-231; type: cell-based, human; settings: for IC50: Homo sapiens, MDA-MB-231, MTT, 24 h exposure, ± SD, n = 8
Text: as §1
as §2, with “Following incubation at 37 °C for 24 h, cells were exposed to various concentrations (0.25, 0.5, 1.0, 2.0, 4.0, 8.0, 16.0, 32.0 µM) of compounds 1–10 for 24 h.” left out
as §3

Hep G2 = assay: MTT cytotoxicity assay, Hep G2; type: cell-based; settings: Homo sapiens, HepG2, 24 h exposure, ± SD, n = 8
Text: as §1
as §2, with “Following incubation at 37 °C for 24 h, cells were exposed to various concentrations (0.25, 0.5, 1.0, 2.0, 4.0, 8.0, 16.0, 32.0 µM) of compounds 1–10 for 24 h.” left out
as §3

A549 = assay: MTT cytotoxicity assay, A549; type: cell-based; settings: Homo sapiens, 24 h exposure, ± SD, n = 8
Text: as §1
as §2, with “Following incubation at 37 °C for 24 h, cells were exposed to various concentrations (0.25, 0.5, 1.0, 2.0, 4.0, 8.0, 16.0, 32.0 µM) of compounds 1–10 for 24 h.” left out
as §3

Compound | IC50 at 24 h [1] [µM] | IC50 (MCF-7) [µM] | IC50 at 24 h [2] [µM] | IC50 (BEL-7402) [µM] | IC50 (Hela) [µM] | IC50 (MDA-MB-231) [µM] | IC50 (Hep G2) [µM] | IC50 (A549) [µM] | inhibitory effect on MDA-MB-231 cells (in words) (MDA-MB-231; compared with positive control)
COC(=O)C1OC(OC2CCC3(C)C(CCC4(C)C3CC=C3C5CC(C)(C)CCC5(CO)C(O)C(O)C34C)C2(C)C)C(OC2OC(CO)C(O)C(O)C2O)C(OC2OC(CO)C(O)C(O)C2OC2OC(C)C(O)C(O)C2O)C1O [Compound 1, 3β,15α,16α,28-tetrahydroxyolean-12-en-3-O-β-D-glucopyranosyl-(1→2)-[α-L-rhamnopyranosyl-(1→2)-β-D-galactopyranosyl-(1→3)]-β-D-glucuronopyranoside methyl ester] | > 30 | 9.06 ± 0.45 | > 30 | 7.62 ± 1.06 | 15.1 ± 1.06 | > 30 | 25.6 ± 3.46 | > 30 | 
CC1OC(OC2C(OC3C(O)C(C(=O)O)OC(OC4CCC5(C)C(CCC6(C)C5CC=C5C7CC(C)(C)CCC7(CO)C(O)C(O)C56C)C4(C)C)C3OC3OC(CO)C(O)C(O)C3O)OC(CO)C(O)C2O)C(O)C(O)C1O [Compound 2, 3β,15α,16α,28-tetrahydroxyolean-12-en-3-O-β-D-glucopyranosyl-(1→2)-[α-L-rhamnopyranosyl-(1→2)-β-D-galactopyranosyl-(1→3)]-β-D-glucuronopyranoside] | > 30 | 19.2 ± 3.71 | > 30 | > 30 | 4.17 ± 0.85 | 26.5 ± 3.07 | 14 ± 3.29 | > 30 | 
CC1OC(OC2C(OC3C(O)C(C(=O)O)OC(OC4CCC5(C)C(CCC6(C)C5CC=C5C7CC(C)(C)CCC7(CO)C(=O)C(O)C56C)C4(C)C)C3OC3OC(CO)C(O)C(O)C3O)OC(CO)C(O)C2O)C(O)C(O)C1O [Compound 3, 3β,15α,28-trihydroxyolean-12-en-16-on-3-O-β-D-glucopyranosyl-(1→2)-[α-L-rhamnopyranosyl-(1→2)-β-D-galactopyranosyl-(1→3)]-β-D-glucuronopyranoside] | > 30 | 1.65 ± 0.39 | > 30 | 4.94 ± 0.41 | > 30 | 10.1 ± 2.28 | 8.77 ± 1.56 | 23.4 ± 7.26 | comparable to that of cisplatin
CC1OC(OC2C(OC3C(OC4C(=O)c5c(O)cc(O)cc5OC4c4ccc(O)cc4)OC(C)C(O)C3O)OC(CO)C(O)C2O)C(O)C(O)C1O [Compound 4, (2R,3R)-3,5,7,4′-tetrahydroxyflavanone-3-O-α-L-rhamnopyranosyl-(1→2)-β-D-glucopyranosyl-(1→2)-α-L-rhamnoside] | > 30 | > 30 | > 30 | > 30 | > 30 | > 30 | > 30 | > 30 | 
CC(=O)OC1C(O)C(C)OC(OC2C(OC3C(OC4C(=O)c5c(O)cc(O)cc5OC4c4ccc(O)cc4)OC(C)C(O)C3O)OC(CO)C(O)C2O)C1O [Compound 5, (2R,3S)-3,5,7,4′-tetrahydroxyflavanone-3-O-[3-acetyl-O-α-L-rhamnopyranosyl-(1→2)-β-D-glucopyranosyl-(1→2)]-α-L-rhamnoside] | > 30 | > 30 | > 30 | > 30 | > 30 | > 30 | 20.8 ± 3.79 | > 30 | 
CC(=O)OC1C(C)OC(OC2C(OC3C(OC4C(=O)c5c(O)cc(O)cc5OC4c4ccc(O)cc4)OC(C)C(O)C3O)OC(CO)C(O)C2O)C(O)C1O [Compound 6, (2R,3R)-3,5,7,4′-tetrahydroxyflavanone-3-O-[4-acetyl-O-α-L-rhamnopyranosyl-(1→2)-β-D-glucopyranosyl-(1→2)]-α-L-rhamnoside] | > 30 | > 30 | > 30 | 11.4 ± 3.11 | > 30 | > 30 | > 30 | > 30 | 
C[C@@H]1O[C@@H](OC[C@H]2O[C@@H](Oc3c(-c4ccc(O)c(O)c4)oc4cc(O)cc(O)c4c3=O)[C@H](OC(=O)/C=C/c3ccc(O)cc3)[C@@H](O[C@@H]3OC[C@H](O)[C@H](O)[C@H]3O)[C@@H]2O)[C@H](O)[C@H](O[C@@H]2OC[C@@H](O)[C@H](O)[C@H]2O)[C@H]1O [Compound 7, 3,5,7,3′,4′-pentahydroxyflavonol-3-O-α-L-arabinopyranosyl-(1→3)-[β-D-xylopyranosyl-(1→3)-α-L-rhamnopyranosyl-(1→6)]-2-O-p-E-coumaryl-β-D-glucopyranoside] | > 30 | > 30 | > 30 | > 30 | > 30 | > 30 | > 30 | > 30 | 
COc1cccc2c1C(=O)c1c(O)c3c(c(O)c1C2=O)C[C@@](O)(C(=O)CO)C[C@@H]3O[C@H]1C[C@H](N)[C@H](O)[C@H](C)O1 [doxorubicin, reference compound] |  | 3.79 ± 0.26 |  |  |  |  |  |  | 

From article PMC11506924, “Triterpenoid Saponins and Flavonoid Glycosides from the Flower of Camellia flavida and Their Cytotoxic and α-Glycosidase Inhibitory Activities” (International Journal of Molecular Sciences, 2024)
